Source: patent US12320799B2, “Methods of measuring signaling pathway activity for selection of therapeutic agents” (Celcuity Inc., priority 2017, dated 2025)

What was measured:
Format in all cases: cell-based, human
[1] = test system: FLT3 signaling pathway; assay: CELx multiple pathway test, impedance biosensor cell adhesion, FL/Gilteritnib pair; settings: activator FL
Text: Biosensor and transducer: A 96-well impendence E-Plate (ACEA, San Diego, CA) was placed onto an xCELLigence RTCA MP Station impendence biosensor (ACEA, San Diego, CA). The biosensor measured simultaneously the impedance of every well. The change in impedance for a particular well is proportional to the number of cells and type of attachment the cells have with the impedance microplate. Changes in impedance indicate a response to perturbation of these small cell populations. Coatings: The 96-E-Plate were wells were coated with fibronectin and or collagen. Collagen is purchased from Advanced BioMatrix (Carlsbad, CA) and fibronectin from Sigma-Aldrich (St. Louis, MO). Tissue and cell samples: A total of 18 samples of human tumor cells from breast, lung, colon, ovarian, kidney, bladder cancer were studied. For each of these six different cancer types, tumor cell samples from three different patients were tested. Any biomarkers that are used to guide selection of targeted therapy are listed in Table 18 for each patient if they were present. Signaling Pathways activator agent and targeted therapeutic pairs: Eleven different signaling pathways were studied in each human tumor cell sample using […] signaling pathway activator agent and targeted therapeutic pairs. Each of the signaling pathway activator agent and targeted therapeutic pairs affect the same signaling pathway. Each of the signaling pathway activator agents is a well-characterized and specific agonist of its associated signaling pathway and each of the targeted therapeutic agents is a well-characterized and specific antagonist of the same associated signaling pathway. The signaling pathway activator agents and targeted therapeutics used to characterize the activity level of the associated signaling pathway are summarized in Table 16 below:
Other Reagents: Standard media antibiotics (e.g. penicillin, streptomycin) and other buffers were purchased and used as delivered from ATCC (Manassas, VA, USA) or Life Technologies (Grand Island, NY). Procedure: For each test of a patient cell sample with a pair of signaling pathway activator and targeted therapeutic agents, six wells were seeded with approximately 15,000 cells in 120 uL culture media. Twenty microliters of the targeted therapeutic agent were added to two wells of each patient's cells and 20 microliters of standard media were added to the other four wells for each patient 18 hours in advance of addition of the signaling pathway activator agent. Signaling pathway stimulation was initiated with the addition of 20 ul of the signaling pathway activator agent in the two wells that received a targeted therapeutic agent and in two additional wells for each patient's set of cells without the targeted therapeutic. The impedance recording of attachment and adhesion change was performed at 37° C., 5% C02. Data was recorded on a continuous basis throughout the test, where the data presented is from the initial baseline level of cell attachment compared to the subsequent effects following the targeted therapeutic agent and the signaling pathway activator agent additions on the 18 different patient samples.
For each of the 18 patient samples, up to 11 different signaling pathways were tested. The output value represents the difference between the amount of cell adhesion change resulting from addition of the signaling pathway activator agent and the amount of cell adhesion change resulting from addition of the targeted therapeutic agent.

[2] = test system: c-Met signaling; assay: CELx ex vivo test of C21 sample agonized only by HGF; settings: C21 cell sample agonized only by HGF
Protocol: (§1) A HER2+ tumor cell sample, C21, was tested using essentially the same methods described in Examples 1 and 3 above to evaluate the status of the c-Met, EGFR, HER2 and HER3 pathways. […] Thus, this cell sample was suitable to assess whether cells found to be responsive to c-Met and EGFR inhibitors ex vivo in the CELx test would respond to these same inhibitors when another portion of the same cell sample was implanted in a xenograft mouse model.
(§2) This finding is not related to the receptor or gene amplification status of either receptor, nor observable when signaling activity is measured in isolation. This highlights the advantages of evaluating multiple signaling pathways simultaneously in live cells.

[3] = test system: HER family signaling pathways and the c-Met signaling pathway; assay: CELx ex vivo test of C21 sample simultaneously agonized with NRG1, EGF and HGF; settings: C21 cell sample simultaneously agonized with NRG1, EGF and HGF
Protocol: as §1, §2

Compound | output value ([1]; C2 breast tumor cells) | output value ([1]; C21 breast tumor cells) | output value ([1]; C34 breast tumor cells) | output value ([1]; C54 ovarian tumor cells) | output value ([1]; C77 ovarian tumor cells) | percentage of c-Met signaling activity inhibited [2] [%] | total signaling inhibited [3]
CCc1nc(C(N)=O)c(Nc2ccc(N3CCC(N4CCN(C)CC4)CC3)c(OC)c2)nc1NC1CCOCC1 [Gilteritnib] | 7 | 9 | 10 | 10 | 6 | – | –
CN1CCC(COc2cnc(-c3cccc(Cn4nc(-c5cccc(C#N)c5)ccc4=O)c3)nc2)CC1 [tepotinib] | – | – | – | – | – | ~100 | less than 10%
